Paper PMC6835763, “Influence of Short Cationic Lipopeptides with Fatty Acids of Different Chain Lengths on Bacterial Biofilms Formed on Polystyrene and Hydrogel Surfaces” (Pharmaceutics, 2019)
Converted amounts (≈) assume the structure as drawn. Where a SMILES comes first, the peptide text is derived from it. The star is where a group is joined. Palmitoyl = CCCCCCCCCCCCCCCC(=O)*; Myristoyl = CCCCCCCCCCCCCC(=O)*

Assays:
Format in all cases: cell-based
[1] = system: Enterococcus faecalis ATCC 29212; experiment: MBFIC assay (biofilm formation inhibition, resazurin); conditions: ca. 5 × 10^8 CFU/mL in MHB II, 37 °C, 18 h, visual, triplicate; for MBFIC E. faecalis, CL: contact lenses (CL, Etafilcon A hydrogel) in 24-well plates; for MBFIC E. faecalis, PS: polystyrene plates (PS), 96-well
Experimental: (§1) To determine the inhibitory effect of antimicrobials on the formation of biofilm on hydrophobic surfaces, the bacterial suspensions of strains (initial inoculum of ca. 5 × 10^8 CFU/mL in MHB II medium supplemented with antimicrobials) were cultured on 96-well PS at 37 °C for 18 h under aerobic conditions. After incubation, the suspensions were aspirated, and the wells were rinsed three times with sterile phosphate buffer PBS (AppliChem, Darmstadt, Germany) in order to remove the planktonic cells. Resazurin (final concentration per sample = 0.005%) was applied as a cell viability reagent for reading the results. In contact with the living cells, the dye is metabolized by bacterial dehydrogenases, resulting in a reduction of blue resazurin to pink resorufin. All assays were performed in triplicate and included the growth controls (positive controls: bacterial suspensions without antimicrobials) and the sterility controls (negative controls: a sterile MBH medium). After 1h of incubation, a visual evaluation of results was made. […] In a preliminary study, it was established that the application of lipopeptides at a concentration found active from visual evaluation caused the reduction of bacterial metabolism to approximately 10% (or less) of the positive control once the results were evaluated with a spectrophotometer. After 1 h of incubation with the dye, absorbance was measured at 570 and 600 nm using a microplate reader (Thermo Fisher Scientific, Waltham, MA, USA). The metabolic activity of bacteria in the samples was measured according to the formula presented in the previous paper.
(§2) The MBFIC assay with CL was applied in order to access the influence of lipopeptides on the biofilm formation on hydrogel surfaces. The entire sterile CL (1-Day Acuvue Moist, containing Etafilcon A., purchased from Johnson & Johnson (Vision Care, Jacksonsville, FL, USA), were placed in 24-well PS (Orange Scientific, Braine-l’ Alleud, Belgium) and the MBFICs were determined according to the above protocol.

[2] = system: Staphylococcus aureus ATCC 25923; experiment: as above; conditions: for MBFIC S. aureus, CL: contact lenses (CL, Etafilcon A hydrogel) in 24-well plates; for MBFIC S. aureus, CL / MBFIC S. aureus, PS: ca. 5 × 10^8 CFU/mL in MHB II, 37 °C, 18 h, resazurin, visual, triplicate; for MBFIC S. aureus, PS: polystyrene plates (PS), 96-well
Experimental: as §1, §2

[3] = system: Pseudomonas aeruginosa ATCC 9027; experiment: as above; conditions: ca. 5 × 10^8 CFU/mL in MHB II, 37 °C, 18 h, visual, triplicate; for MBFIC P. aeruginosa, CL: contact lenses (CL, Etafilcon A hydrogel) in 24-well plates; for MBFIC P. aeruginosa, PS: polystyrene plates (PS), 96-well
Experimental: as §1, §2

[4] = system: Staphylococcus epidermidis ATCC 14990; experiment: as above; conditions: ca. 5 × 10^8 CFU/mL in MHB II, 37 °C, 18 h, resazurin, visual, triplicate; for MBFIC S. epidermidis, CL: contact lenses (CL, Etafilcon A hydrogel) in 24-well plates; for MBFIC S. epidermidis, PS: polystyrene plates (PS), 96-well
Experimental: as §1, §2

[5] = system: Escherichia coli ATCC 25922; experiment: as above; conditions: ca. 5 × 10^8 CFU/mL in MHB II, 37 °C, 18 h, visual, triplicate; for MBFIC E. coli, CL: contact lenses (CL, Etafilcon A hydrogel) in 24-well plates; for MBFIC E. coli, PS: polystyrene plates (PS), 96-well
Experimental: as §1, §2

[6] = system: Proteus mirabilis PCM 543; experiment: as above; conditions: ca. 5 × 10^8 CFU/mL in MHB II, 37 °C, 18 h, visual, triplicate; for MBFIC P. mirabilis, CL: contact lenses (CL, Etafilcon A hydrogel) in 24-well plates; for MBFIC P. mirabilis, PS: polystyrene plates (PS), 96-well
Experimental: as §1, §2

[7] = system: Enterococcus faecalis ATCC 29212; conditions: ATCC 29212, 24 h
Experimental: (§3) The biofilms of bacteria associated with the biofilm-related infections were cultured on 96-well flat bottom PS and on CL placed in 24-well plates. The bacteria at initial inoculums of 5 × 10^8 CFU/mL in MHB II were added to the plates and incubated at 37 °C under aerobic conditions. After 24 h of incubation, all cultures were rinsed three times with PBS and fresh medium was added. Subsequently, the obtained biofilm cultures were exposed to solutions of antimicrobials applied at graded concentrations ranging from 1 to 512 μg/mL for 24 h at 37 °C. The anti-biofilm activity of antimicrobials was visualized by resazurin (final concentration per sample = 0.005%) in the same way as in the MBFIC assay. All experiments were performed in triplicate and included growth controls (positive control: bacterial suspension without antimicrobials) and sterility controls (negative controls: sterile MBH II medium).

[8] = system: Staphylococcus aureus ATCC 25923; conditions: ATCC 25923, 24 h
Experimental: as §3

[9] = system: Pseudomonas aeruginosa ATCC 9027; conditions: ATCC 9027, 24 h
Experimental: as §3

[10] = system: Staphylococcus epidermidis ATCC 14990; conditions: ATCC 14990, 24 h
Experimental: as §3

[11] = system: Escherichia coli ATCC 25922; conditions: ATCC 25922, 24 h
Experimental: as §3

[12] = system: Proteus mirabilis PCM 543; conditions: PCM 543, 24 h
Experimental: as §3

[13] = system: Enterococcus faecalis ATCC 29212; conditions: ATCC 29212, 18 h
Experimental: (§4) The reference strains of gram-positive and gram-negative bacteria (Table 2) were obtained from the Polish Collection of Microorganisms (Polish Academy of Science, Wroclaw, Poland). The microorganisms were cultured in Muller Hinton Broth II (MHB II, Biocorp, Warsaw, Poland), overnight, at 37 °C. The MICs of synthetic lipopeptides and conventional antimicrobials were determined using the broth microdilution method according to the Clinical and Laboratory Standard Institute (CLSI) guidelines on reference strains. […] The PS were incubated under aerobic conditions at 37 °C for 18 h. The MIC (μg/mL) was assumed as the lowest concentration of the compound that inhibited the growth of the microorganisms. All experiments were performed in triplicate and included the growth and sterility controls.

[14] = system: Staphylococcus aureus ATCC 25923; conditions: ATCC 25923, 18 h
Experimental: as §4

[15] = system: Pseudomonas aeruginosa ATCC 9027; conditions: ATCC 9027, 18 h
Experimental: as §4

[16] = system: Staphylococcus epidermidis ATCC 14990; conditions: ATCC 14990, 18 h
Experimental: as §4

[17] = system: Escherichia coli ATCC 25922; conditions: ATCC 25922, 18 h
Experimental: as §4

[18] = system: Proteus mirabilis PCM 543; conditions: PCM 543, 18 h
Experimental: as §4

| MIC E. faecalis [13] [µg/mL] | MIC S. aureus [14] [µg/mL] | Structure (SMILES) | MBFIC E. faecalis, CL [1] | MBFIC E. faecalis, PS [1] | MBFIC S. aureus, CL [2] | MBFIC S. aureus, PS [2] | MBFIC P. aeruginosa, CL [3] | MBFIC P. aeruginosa, PS [3] | MBFIC S. epidermidis, CL [4] | MBFIC S. epidermidis, PS [4] | MBFIC E. coli, CL [5] | MBFIC E. coli, PS [5] | MBFIC P. mirabilis, CL [6] | MBFIC P. mirabilis, PS [6] | MBEC E. faecalis, CL [7] [µg/mL] | MBEC S. aureus, CL [8] [µg/mL] | MBEC P. aeruginosa, CL [9] | MBEC S. epidermidis, CL [10] [µg/mL] | MBEC E. coli, CL [11] [µg/mL] | MBEC P. mirabilis, CL [12] | also measured |
| --- | --- | --- | --- | --- | --- | --- | --- | --- | --- | --- | --- | --- | --- | --- | --- | --- | --- | --- | --- | --- | --- |
| 16 (≈ 25 µM) | 64 (≈ 100 µM) | CCCCCCCCCCCCCCCC(=O)N[C@@H](CCCCN)C(=O)N[C@@H](CCCCN)C(=O)N[C@@H](CCCCN)C(N)=O [Lipopeptide 7, C16-KKK-NH2] | 64/64 μg/mL | 64/64 μg/mL | 32/32 μg/mL | 32/32 μg/mL | 512/512 μg/mL | 512/512 μg/mL | 32 µg/mL | 8 µg/mL | 32 µg/mL | 64 µg/mL | 256 µg/mL | 512 µg/mL | 16 | 256 | 512/>512 μg/mL | 64 | 128 | 512/>512 μg/mL | concentrations eliminating the EC biofilm (MBEC range) [11]: 64 to 128 µg/mL; MIC P. aeruginosa [15]: 64 µg/mL (≈ 100 µM); MIC S. epidermidis [16]: 16 µg/mL (≈ 25 µM); MIC E. coli [17]: 32 µg/mL (≈ 50 µM); MIC P. mirabilis [18]: 256 µg/mL (≈ 400 µM) |
| 32 (≈ 62.5 µM) | 32 (≈ 62.5 µM) | CCCCCCCCCCCCCC(=O)N[C@@H](CCCCN)C(=O)N[C@@H](CCCNC(=N)N)C(N)=O [Lipopeptide 4, C14-KR-NH2] (Myristoyl-Lys-Arg-NH2) | 64 µg/mL | 128 µg/mL | 2 µg/mL | 16 µg/mL | 128 µg/mL | 256 µg/mL | 32/32 μg/mL | 32/32 μg/mL | 128/128 μg/mL | 128/128 μg/mL | 512/>512 μg/mL | 512/>512 μg/mL | 256 | 512 | >512/>512 μg/mL | 32 | 256 | >512/>512 μg/mL | concentrations inhibiting formation of SA biofilm (MBFIC range) ([2]; range over PS and CL): 2 to 16 µg/mL; MIC P. aeruginosa [15]: 128 µg/mL (≈ 250 µM); MIC S. epidermidis [16]: 4 µg/mL (≈ 7.82 µM); MIC E. coli [17]: 32 µg/mL (≈ 62.5 µM); MIC P. mirabilis [18]: 512 µg/mL (≈ 1000 µM) |
| 32 (≈ 56.3 µM) | 64 (≈ 113 µM) | CCCCCCCCCCCCCCCC(=O)N[C@@H](CCCCN)C(=O)NCC(=O)N[C@@H](CCCCN)C(N)=O [Lipopeptide 5, C16-KGK-NH2] (Palmitoyl-Lys-Gly-Lys-NH2) | 64/64 μg/mL | 64/64 μg/mL | 32/32 μg/mL | 32/32 μg/mL | 256 µg/mL | 512 µg/mL | 64 µg/mL | 32 µg/mL | 128 µg/mL | 64 µg/mL | >512/512 μg/mL | >512/512 μg/mL | 32 | 512 | 256 µg/mL | 128 | 64 | >512/>512 μg/mL | concentrations eliminating the EC biofilm (MBEC range) [11]: 64 to 128 µg/mL; MIC P. aeruginosa [15]: 256 µg/mL (≈ 450 µM); MIC S. epidermidis [16]: 32 µg/mL (≈ 56.3 µM); MIC E. coli [17]: 16 µg/mL (≈ 28.1 µM); MIC P. mirabilis [18]: 512 µg/mL (≈ 900 µM) |
